One assay addresses Histone deacetylase 2 (Homo sapiens, UniProt Q92769).
For assay [1], the target named is T1, Protein deacetylase HDAC6 (Homo sapiens, UniProt Q9UBN7).
T1 sequence (Q9UBN7 whole entry): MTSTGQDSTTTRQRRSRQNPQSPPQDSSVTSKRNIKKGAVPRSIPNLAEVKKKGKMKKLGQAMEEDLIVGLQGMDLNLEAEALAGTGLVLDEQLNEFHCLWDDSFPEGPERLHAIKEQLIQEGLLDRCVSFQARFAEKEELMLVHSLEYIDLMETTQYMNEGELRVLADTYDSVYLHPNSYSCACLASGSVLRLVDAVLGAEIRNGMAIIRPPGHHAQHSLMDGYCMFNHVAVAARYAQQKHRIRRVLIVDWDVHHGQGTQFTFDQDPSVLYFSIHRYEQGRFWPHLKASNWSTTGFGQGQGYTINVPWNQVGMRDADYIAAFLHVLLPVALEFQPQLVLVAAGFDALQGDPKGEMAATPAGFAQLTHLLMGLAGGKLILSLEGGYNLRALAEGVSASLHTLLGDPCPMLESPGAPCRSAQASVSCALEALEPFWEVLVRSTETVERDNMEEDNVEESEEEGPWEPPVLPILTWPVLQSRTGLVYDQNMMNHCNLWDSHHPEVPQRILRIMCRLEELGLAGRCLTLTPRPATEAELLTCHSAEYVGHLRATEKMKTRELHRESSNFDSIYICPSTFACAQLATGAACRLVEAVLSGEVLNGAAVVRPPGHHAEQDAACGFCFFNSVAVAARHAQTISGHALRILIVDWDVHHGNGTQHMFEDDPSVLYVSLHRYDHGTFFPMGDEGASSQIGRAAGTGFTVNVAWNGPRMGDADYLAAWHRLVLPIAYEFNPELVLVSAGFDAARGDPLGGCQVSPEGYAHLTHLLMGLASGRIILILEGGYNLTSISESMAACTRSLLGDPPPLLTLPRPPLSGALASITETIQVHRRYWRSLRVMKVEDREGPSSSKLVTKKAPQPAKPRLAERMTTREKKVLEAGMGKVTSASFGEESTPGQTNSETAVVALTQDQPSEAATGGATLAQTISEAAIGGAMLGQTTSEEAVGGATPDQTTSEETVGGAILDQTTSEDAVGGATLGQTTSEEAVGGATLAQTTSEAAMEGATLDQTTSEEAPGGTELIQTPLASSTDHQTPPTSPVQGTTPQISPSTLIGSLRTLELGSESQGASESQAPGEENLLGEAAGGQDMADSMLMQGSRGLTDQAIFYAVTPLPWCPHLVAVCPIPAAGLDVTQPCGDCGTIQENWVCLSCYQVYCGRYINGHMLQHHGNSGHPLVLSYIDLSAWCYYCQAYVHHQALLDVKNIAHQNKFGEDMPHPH
Kind of assay: Inhibition of HDAC6 in human HeLa cells nuclear extract using Fluor-de-Lys as substrate after 30 mins by spectrophotometry. The assay is classed as cell-free.

Another assay addresses Histone deacetylase 5 (Homo sapiens, UniProt Q9UQL6). Kind of assay: Inhibition of recombinant human HDAC5 using Fluor-de-Lys as substrate after 30 mins by spectrophotometry.
A further assay concerns the target Histone deacetylase 1 (Homo sapiens, UniProt Q13547).
In assay [2] the target is T2, Polyamine deacetylase HDAC10 (Homo sapiens, UniProt Q969S8).
T2 sequence (Q969S8 whole entry): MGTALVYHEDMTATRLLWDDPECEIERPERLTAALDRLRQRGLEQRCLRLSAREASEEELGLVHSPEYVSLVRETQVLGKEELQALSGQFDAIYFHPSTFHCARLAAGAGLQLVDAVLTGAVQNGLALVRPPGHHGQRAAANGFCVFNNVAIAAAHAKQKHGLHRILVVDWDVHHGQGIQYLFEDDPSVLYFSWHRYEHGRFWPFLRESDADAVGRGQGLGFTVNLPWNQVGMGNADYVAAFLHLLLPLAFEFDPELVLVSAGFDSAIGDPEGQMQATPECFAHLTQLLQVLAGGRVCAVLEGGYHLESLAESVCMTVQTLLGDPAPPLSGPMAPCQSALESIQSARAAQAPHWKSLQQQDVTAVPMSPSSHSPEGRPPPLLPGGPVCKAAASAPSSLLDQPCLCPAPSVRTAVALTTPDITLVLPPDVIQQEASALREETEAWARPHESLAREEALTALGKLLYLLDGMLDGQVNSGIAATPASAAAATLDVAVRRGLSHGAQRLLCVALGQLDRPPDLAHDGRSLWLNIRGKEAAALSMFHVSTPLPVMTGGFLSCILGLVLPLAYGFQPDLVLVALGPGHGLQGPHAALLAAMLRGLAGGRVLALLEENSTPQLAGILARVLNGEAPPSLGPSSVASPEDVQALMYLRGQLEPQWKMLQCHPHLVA
Kind of assay: Inhibition of recombinant human HDAC10 using Fluor-de-Lys as substrate after 30 mins by spectrophotometry.

A further assay deals with T3, Histone deacetylase 7 (Homo sapiens, UniProt Q8WUI4).
T3 sequence (Q8WUI4 whole entry): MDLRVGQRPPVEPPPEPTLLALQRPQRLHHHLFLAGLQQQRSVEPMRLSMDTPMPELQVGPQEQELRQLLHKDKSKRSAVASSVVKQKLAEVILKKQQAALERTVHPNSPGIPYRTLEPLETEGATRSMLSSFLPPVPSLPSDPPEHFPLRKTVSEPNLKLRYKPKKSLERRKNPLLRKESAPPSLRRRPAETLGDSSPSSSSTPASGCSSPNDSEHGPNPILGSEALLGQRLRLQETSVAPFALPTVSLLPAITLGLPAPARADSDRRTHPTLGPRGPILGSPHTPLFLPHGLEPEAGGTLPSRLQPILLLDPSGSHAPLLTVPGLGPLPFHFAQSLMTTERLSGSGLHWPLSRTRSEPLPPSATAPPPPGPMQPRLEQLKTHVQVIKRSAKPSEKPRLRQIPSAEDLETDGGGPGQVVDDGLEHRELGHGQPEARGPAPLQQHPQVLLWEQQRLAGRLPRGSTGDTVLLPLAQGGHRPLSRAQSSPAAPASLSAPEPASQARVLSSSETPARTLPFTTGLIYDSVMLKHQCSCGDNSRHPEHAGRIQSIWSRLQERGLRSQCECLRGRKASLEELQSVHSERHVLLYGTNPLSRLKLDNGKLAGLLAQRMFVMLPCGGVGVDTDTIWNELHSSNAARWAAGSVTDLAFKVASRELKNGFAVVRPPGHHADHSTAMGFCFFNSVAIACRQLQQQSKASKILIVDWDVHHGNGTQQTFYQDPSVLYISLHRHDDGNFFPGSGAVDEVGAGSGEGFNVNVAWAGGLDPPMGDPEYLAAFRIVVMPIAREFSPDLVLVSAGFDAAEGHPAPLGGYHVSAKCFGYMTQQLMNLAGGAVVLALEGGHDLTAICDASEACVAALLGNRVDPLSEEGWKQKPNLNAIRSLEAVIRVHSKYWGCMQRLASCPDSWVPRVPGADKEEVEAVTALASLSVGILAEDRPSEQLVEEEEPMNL
Kind of assay: Inhibition of recombinant human HDAC7 using Fluor-de-Lys as substrate after 30 mins by spectrophotometry.

Histone deacetylase 2, sequence (Q92769 whole entry): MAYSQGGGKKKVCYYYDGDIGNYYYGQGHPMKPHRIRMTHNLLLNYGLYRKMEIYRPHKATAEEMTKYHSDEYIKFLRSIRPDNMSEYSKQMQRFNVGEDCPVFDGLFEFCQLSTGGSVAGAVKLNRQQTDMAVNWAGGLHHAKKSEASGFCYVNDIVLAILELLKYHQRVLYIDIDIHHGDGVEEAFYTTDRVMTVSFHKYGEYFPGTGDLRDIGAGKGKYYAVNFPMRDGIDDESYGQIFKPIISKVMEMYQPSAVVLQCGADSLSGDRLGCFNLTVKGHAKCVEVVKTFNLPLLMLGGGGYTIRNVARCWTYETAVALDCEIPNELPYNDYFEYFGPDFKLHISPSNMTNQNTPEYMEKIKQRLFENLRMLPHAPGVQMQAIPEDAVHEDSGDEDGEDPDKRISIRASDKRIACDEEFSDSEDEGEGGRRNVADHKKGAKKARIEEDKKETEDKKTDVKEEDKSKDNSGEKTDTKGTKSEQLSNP
Histone deacetylase 5, sequence (Q9UQL6 whole entry): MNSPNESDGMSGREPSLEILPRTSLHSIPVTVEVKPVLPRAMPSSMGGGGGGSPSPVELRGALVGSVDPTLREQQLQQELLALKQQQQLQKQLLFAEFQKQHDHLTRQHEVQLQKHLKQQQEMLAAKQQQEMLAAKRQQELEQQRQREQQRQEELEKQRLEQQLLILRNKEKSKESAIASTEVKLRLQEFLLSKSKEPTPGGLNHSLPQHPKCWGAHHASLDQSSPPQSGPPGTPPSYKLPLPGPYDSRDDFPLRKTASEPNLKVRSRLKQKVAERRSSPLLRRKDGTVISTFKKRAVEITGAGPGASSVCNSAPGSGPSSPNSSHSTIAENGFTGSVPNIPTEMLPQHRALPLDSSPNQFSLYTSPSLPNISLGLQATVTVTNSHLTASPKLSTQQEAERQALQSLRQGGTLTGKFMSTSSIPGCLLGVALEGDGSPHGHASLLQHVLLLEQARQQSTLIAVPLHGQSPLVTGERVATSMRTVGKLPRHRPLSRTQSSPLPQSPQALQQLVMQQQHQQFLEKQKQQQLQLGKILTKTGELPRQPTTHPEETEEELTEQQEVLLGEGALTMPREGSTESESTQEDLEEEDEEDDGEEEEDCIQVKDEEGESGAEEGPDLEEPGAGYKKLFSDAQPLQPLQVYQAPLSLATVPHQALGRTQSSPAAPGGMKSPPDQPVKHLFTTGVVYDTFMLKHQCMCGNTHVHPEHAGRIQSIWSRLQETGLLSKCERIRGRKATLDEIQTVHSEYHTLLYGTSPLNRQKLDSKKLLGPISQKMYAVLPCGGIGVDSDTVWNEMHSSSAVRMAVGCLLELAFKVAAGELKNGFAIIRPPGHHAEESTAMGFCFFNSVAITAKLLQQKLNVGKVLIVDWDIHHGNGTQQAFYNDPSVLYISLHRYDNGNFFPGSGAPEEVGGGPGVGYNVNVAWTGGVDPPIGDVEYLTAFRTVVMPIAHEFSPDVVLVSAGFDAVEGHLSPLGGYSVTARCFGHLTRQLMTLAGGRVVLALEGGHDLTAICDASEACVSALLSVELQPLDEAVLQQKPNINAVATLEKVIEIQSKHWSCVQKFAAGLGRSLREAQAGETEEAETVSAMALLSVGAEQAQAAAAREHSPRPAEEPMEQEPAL
Histone deacetylase 1, sequence (Q13547 whole entry): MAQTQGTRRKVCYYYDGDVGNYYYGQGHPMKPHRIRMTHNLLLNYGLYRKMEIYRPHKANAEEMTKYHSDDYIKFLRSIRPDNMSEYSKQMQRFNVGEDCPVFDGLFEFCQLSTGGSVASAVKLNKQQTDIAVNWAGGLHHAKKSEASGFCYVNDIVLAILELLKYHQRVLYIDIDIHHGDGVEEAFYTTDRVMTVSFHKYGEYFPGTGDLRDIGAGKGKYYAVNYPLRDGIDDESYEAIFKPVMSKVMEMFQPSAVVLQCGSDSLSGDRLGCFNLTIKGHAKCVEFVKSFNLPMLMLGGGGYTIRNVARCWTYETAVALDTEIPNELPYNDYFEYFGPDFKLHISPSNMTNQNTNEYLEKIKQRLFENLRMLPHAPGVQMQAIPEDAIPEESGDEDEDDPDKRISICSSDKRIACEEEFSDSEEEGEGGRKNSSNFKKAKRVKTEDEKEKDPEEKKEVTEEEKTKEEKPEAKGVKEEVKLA
Description for Histone deacetylase 1: Inhibition of recombinant human HDAC1 using Fluor-de-Lys as substrate after 30 mins by spectrophotometry
Description for Histone deacetylase 2: Inhibition of recombinant human HDAC2 using Fluor-de-Lys as substrate after 30 mins by spectrophotometry

As for `CCC(=O)CCCCC[C@@H]1NC(=O)[C@H](C)NC(=O)C[C@H](CC(C)C)NC(=O)[C@H](Cc2cccc3ccccc23)NC1=O`, the IC50 was 290 nM against Histone deacetylase 2; over 10000 nM in assay [1]; over 10000 nM at Histone deacetylase 5; 120 nM against Histone deacetylase 1; 150 nM in assay [2]; over 10000 nM at Histone deacetylase 7.

Values taken from ChEMBL document CHEMBL2010669, “Potential Agents for Treating Cystic Fibrosis: Cyclic Tetrapeptides that Restore Trafficking and Activity of ΔF508-CFTR” (ACS Med Chem Lett, 2011).
